In patent publication US6417159B1 (Queen's University at Kingston, priority 1996, dated 2002):

Tests used:
PC12 cells = assay: NGF-mediated neurite growth by PC12 cells; format: cell-based, rat
Procedure: PC12 cells or PC12^nnr5 cells (Loeb et al., 1991) were seeded on poly-D-lysine-coated (0.1 mg·ml^−1, overnight) 96-well microculture dishes (Falcon) at approximately 800 cells per well with RPMI with 10% fetal calf serum. Peptides were added to replicate wells 48 hours before, or at the time of, addition of NGF. NGF was prepared by the method of Mobley et al. (1976) and used at 1-2 nM. Other additives were diluted at least 100-fold and added to the wells as described. At various times following incubation at 37° C., 5% CO2, wells were scored for neurite-bearing cells by serial counting of representative circumferences of each well.
A Leitz Diavert inverted microscope with phase optics was used to score neurite growth. For both PC12 cells and sensory neurons, a neurite was scored as such if its calibre from origin to terminal was approximately the same and the length was equal to or greater than 1.5 cell body diameters.

TrkA [1] = biological target: T1, TrkA (Rattus norvegicus, UniProt P35739); assay: [125I]NGF affinity cross-linking to TrkA; format: binding; settings: PC12 cells, 50 μM R3
T1 construct: endogenous in cells; host or cells: PC12
Procedure: FIG. 7A illustrates the influence of peptide R3 on affinity cross-linking of TrkA and p75^NTR. Intact PC12 cells were treated with 50 μM R3 for 24 h (preinc.) in medium, harvested with CMF medium, and suspended at a concentration of 10^6·ml^−1 (or 10^7·m^−1 for immunoprecipitation studies) in HKR buffer. Cells were then incubated in the presence or absence of R3 (coinc.) for 15 min at 37° C. and cooled in ice. Cross-linking was performed by incubating cells with 1 nM [^125I]-NGF for 2 h at 4° C., adding EDC ([…]) and NHS (2 mM) or BS^3 (0.4 mM) as indicated, and incubating for 30 min at 25° C. Cells were washed three times in HKR buffer and the pellet dissolved in reducing SDS sample buffer or in lysis buffer (1% NP-40, 10% glycerol, 1 mM PMSF, 10 μg-ml^−1 aprotinin, 1 μg/ml leupeptin, […] o-vanadate in TBS) for immunoprecipitation (lanes 4 and 8). For immunoprecipitation, the cellular debris was removed by centrifugation and the supernatant incubated with 1 μg anti-p75^NTR monoclonal Ab 192 (Cedarlane Laboratories Ltd.) or 1 μg anti-TrkA polyclonal Ab (a gift from Dr. W. Mobley, University of California, San Francisco) for 4 h at 4° C. Immunoprecipates were isolated by incubating with 50 μl of a 50% solution of protein A-SEPHAROSE™ (anti-Trk) or goat anti-mouse agarose (Ab 192) for 2 h at 4° C. Precipitates were washed 3 times in lysis buffer and dissolved in sample buffer. […]

TrkA [2] = assay: NGF-mediated TrkA tyrosine phosphorylation in PC12 cells; format: cell-based, rat; settings: prior to or at the time of NGF exposure
Procedure: FIG. 7B illustrates the influence of peptide R3 on TrkA phosphorylation. PC12 cells were treated with R3 for 30 min or 24 h and suspended in HKR buffer at a concentration of 10^7·ml^−1. NGF (50 ng·ml^−1) was added where indicated and samples incubated for 15 min at 37° C. Cells were subsequently harvested by centrifugation and the pellets dissolved in lysis buffer and immunoprecipitated for TrkA as described. Immunoprecipitated proteins were separated using 7.5% polyacrylamide gels (Laemmli) and transblotted to PVDF membrane. The membrane was processed for anti-phosphotyrosine with HRP-conjugated antibody RC-20 as described by the manufacture's literature (Transduction Laboratories Ltd.).
TrkA phosphorylation was performed by a modification of the method of Kaplan et al. (1991 a and b). PC12 cells were harvested as described and suspended at a concentration of 10^7 ml in HKR buffer. NGF (100 ng·ml^−1) was added and the cell suspension was incubated for 30 min at 37° C. and pelleted at 4° C. The cells were solublized with lysis buffer, and TrkA protein was immunoprecipitated as described. Proteins were fractionated by 7.5% SDS-PAGE, and transferred to nitrocellulose for immunoblot analysis as described (Harlow and Lane, 1988). Phosphoproteins were visualized using anti-phosphotyrosine clone 4G10 (UBI) as described in the supplier's product literature.

T1 sequence (P35739 33-799): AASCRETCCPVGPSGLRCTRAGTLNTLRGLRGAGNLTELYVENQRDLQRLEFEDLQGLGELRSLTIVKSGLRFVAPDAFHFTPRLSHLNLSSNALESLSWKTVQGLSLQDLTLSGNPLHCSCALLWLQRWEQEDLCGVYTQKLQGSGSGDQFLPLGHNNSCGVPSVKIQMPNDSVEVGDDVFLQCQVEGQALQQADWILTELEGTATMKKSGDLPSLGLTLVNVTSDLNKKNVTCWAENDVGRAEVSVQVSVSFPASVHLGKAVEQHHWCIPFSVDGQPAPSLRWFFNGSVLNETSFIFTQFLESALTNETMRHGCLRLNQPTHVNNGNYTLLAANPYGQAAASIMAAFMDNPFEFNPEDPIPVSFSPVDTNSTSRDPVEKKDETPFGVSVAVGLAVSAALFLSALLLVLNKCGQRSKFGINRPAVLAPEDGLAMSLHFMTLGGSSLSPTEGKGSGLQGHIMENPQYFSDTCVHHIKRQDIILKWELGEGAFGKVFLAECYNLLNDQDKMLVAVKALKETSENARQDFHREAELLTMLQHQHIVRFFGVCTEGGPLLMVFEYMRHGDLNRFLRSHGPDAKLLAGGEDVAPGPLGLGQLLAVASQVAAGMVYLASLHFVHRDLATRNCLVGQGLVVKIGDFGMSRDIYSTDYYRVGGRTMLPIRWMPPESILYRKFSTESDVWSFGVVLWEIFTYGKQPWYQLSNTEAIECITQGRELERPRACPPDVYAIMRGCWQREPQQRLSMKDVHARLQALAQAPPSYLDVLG

Question: Which “Effect of R3 on enhancement of NGF-mediated neurite growth in presence of Mg2+, in words” value (PC12 cells; 10 mM Mg^+2) does the source give for LDALLAALRRIQR [R3] here?
Answer: Its value is “inhibited completely”.

Question: And the “Neurite growth-enhancing effect of R3 in presence of pertussis toxin, in words” value (PC12 cells; PC12 cells pre-treated with pertussis toxin)?
Answer: Its value is “did not influence”.

Question: And the “Effect on NGF-mediated neurite growth, co-incubation, in words” value (PC12 cells; PC12 cells, peptide co-incubated with NGF)?
Answer: The value was “enhanced temporally the neurite growth response”.

Question: What about the “Time of maximal effect on NGF-mediated neurite growth” value (PC12 cells; all concentrations of R3) of the same sequence?
Answer: The value was 40 to 48 h.

Question: And the “Effect on neurite growth response to NGF, pre-incubation, in words” value (PC12 cells; peptide present 24 or 48 hours prior to addition of NGF)?
Answer: Its value is “inhibited transiently”.

Question: What about the “Affinity cross-linking of [125I]NGF to TrkA monomers or homodimers, in words” value (TrkA [1]) of the same sequence?
Answer: Its value is “not affected”.

Question: And the “Influence on NGF-mediated tyrosine phosphorylation of TrkA, in words” value (TrkA [2])?
Answer: The value was “did not consistently influence”.
